From article PMC12000433 (Scientific Reports, 2025)

What was measured:
[1] = tested on: β1i/LMP2, β5i/LMP7 and β2i/PSMB10 in SK-N-MC^A*02:01 and other EwS cell lines; experiment: Western blot of immunoproteasome subunits in EwS cell lines; type: cell-based, human; details: IFN-γ 100U/ml, 24 h
[2] = tested on: MHC class I on EwS cell lines; experiment: flow cytometry of MHC class I on EwS cell lines; type: cell-based, human; details: IFN-γ 100U/ml, 24 h; W6/32 and BB7.2 mAbs

Substance: IFN-γ: inflammatory cytokine used to treat EwS cell lines and tumors
- immunoproteasome subunit expression [1]: induced de novo expression of immunoproteasome subunits
- MHC class I expression [2]: induced MHC class I upregulation
